Where two headings read alike, the source gives them in different places.
Experiments:
Experiment in all cases: biochemical
Design in all cases: Eurofins DiscoverX kinase panel, competitive binding assay at 1 uM, percent of DMSO control
Settings in all cases: competitive binding, percent of DMSO control
IGF-1R = target: T1, IGF-1R (Homo sapiens, UniProt P08069)
T1 construct: gene IGF1R
Outline: (§1)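 Competitive binding assay across a 96-kinase panel with KIF18A compounds at 1 µM; values given as percentage of control (POC), single experiment.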

IRAK 4 = target: T2, IRAK 4 (Homo sapiens, UniProt Q9NWZ3)
T2 construct: gene IRAK4
T2 sequence (Q9NWZ3 1-460): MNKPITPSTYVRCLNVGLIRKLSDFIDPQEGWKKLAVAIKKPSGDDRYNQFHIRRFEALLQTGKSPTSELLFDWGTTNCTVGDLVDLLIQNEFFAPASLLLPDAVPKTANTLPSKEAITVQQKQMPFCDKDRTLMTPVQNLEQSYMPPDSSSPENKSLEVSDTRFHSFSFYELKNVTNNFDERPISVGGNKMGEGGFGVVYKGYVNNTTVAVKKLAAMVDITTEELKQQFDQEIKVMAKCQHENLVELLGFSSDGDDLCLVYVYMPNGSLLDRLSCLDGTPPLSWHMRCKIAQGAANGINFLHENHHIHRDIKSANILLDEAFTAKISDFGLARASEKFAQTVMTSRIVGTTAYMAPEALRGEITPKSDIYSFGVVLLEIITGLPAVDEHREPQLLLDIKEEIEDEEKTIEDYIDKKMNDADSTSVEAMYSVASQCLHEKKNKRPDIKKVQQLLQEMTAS
Outline: as §1

PKD2 = target: T3, PKD2 (Homo sapiens, UniProt Q9BZL6)
T3 construct: gene PRKD2
T3 sequence (Q9BZL6 1-878): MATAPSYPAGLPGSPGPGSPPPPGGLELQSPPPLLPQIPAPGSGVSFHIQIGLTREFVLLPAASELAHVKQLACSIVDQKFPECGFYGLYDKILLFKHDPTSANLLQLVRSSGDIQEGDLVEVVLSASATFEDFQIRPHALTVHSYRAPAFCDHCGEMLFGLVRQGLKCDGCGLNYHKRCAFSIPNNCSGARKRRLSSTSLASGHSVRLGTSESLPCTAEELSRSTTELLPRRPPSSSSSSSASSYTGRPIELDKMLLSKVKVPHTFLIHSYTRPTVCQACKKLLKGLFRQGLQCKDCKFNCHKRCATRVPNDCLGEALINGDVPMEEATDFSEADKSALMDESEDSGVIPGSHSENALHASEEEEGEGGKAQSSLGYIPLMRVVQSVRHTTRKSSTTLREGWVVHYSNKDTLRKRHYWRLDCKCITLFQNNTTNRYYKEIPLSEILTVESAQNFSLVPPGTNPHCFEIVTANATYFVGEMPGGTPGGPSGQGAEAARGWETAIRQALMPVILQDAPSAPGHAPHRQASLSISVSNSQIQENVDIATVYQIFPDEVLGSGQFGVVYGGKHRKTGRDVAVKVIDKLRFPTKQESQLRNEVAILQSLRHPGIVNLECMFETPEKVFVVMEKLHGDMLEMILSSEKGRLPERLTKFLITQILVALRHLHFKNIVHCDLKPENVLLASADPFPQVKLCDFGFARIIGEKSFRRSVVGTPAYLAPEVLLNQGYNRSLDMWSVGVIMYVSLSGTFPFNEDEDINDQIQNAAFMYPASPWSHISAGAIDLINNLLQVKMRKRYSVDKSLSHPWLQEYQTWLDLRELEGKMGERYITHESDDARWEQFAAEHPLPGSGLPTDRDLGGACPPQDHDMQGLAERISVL
Outline: as §1

TNIK = TNIK (Homo sapiens, UniProt Q9UKE5)
Sequence of TNIK (Q9UKE5 whole entry): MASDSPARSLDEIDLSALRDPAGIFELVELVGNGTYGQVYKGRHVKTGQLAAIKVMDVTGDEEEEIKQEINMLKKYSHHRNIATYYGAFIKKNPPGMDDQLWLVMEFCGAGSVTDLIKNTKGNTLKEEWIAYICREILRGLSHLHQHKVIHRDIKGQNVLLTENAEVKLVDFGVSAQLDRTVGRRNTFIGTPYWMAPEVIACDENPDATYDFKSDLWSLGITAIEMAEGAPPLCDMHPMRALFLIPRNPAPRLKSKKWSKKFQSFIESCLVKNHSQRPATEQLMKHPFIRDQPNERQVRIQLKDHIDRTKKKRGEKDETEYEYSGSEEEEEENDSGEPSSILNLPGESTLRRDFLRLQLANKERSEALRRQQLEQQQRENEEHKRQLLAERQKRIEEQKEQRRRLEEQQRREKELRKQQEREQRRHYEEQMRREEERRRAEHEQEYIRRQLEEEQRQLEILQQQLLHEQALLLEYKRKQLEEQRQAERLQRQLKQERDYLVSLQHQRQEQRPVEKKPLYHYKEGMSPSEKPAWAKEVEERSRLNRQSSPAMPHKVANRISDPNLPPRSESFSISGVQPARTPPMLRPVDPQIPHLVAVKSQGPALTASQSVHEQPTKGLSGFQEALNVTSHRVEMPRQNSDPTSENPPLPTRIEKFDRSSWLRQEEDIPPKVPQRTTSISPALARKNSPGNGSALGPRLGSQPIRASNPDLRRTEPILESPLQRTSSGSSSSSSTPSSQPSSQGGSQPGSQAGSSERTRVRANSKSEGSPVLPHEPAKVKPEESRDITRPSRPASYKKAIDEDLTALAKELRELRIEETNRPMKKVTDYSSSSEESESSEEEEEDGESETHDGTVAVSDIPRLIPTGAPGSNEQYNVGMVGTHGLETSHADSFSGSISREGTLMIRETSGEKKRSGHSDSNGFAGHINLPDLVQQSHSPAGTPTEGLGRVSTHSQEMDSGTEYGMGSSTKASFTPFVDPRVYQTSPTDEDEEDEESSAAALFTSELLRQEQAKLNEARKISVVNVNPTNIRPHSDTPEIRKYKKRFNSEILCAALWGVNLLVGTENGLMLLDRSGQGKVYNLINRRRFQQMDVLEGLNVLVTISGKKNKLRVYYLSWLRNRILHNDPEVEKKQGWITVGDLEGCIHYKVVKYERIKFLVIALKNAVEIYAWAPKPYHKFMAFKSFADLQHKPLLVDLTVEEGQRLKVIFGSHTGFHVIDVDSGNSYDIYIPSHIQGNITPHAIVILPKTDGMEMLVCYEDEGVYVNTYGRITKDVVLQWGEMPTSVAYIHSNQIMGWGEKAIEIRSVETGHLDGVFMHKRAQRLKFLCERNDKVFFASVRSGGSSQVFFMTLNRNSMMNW
Outline: as §1

[1] = read-out: Kinome Profiling performed by Eurofins DiscoverX / AM-1882, 1.0 µM / POC
[2] = read-out: Kinome Profiling performed by Eurofins DiscoverX / AM-0277, 1.0 µM / POC
[3] = read-out: Kinome Profiling performed by Eurofins DiscoverX / AM-5308, 1.0 µM / POC

T1 sequence (P08069 whole entry): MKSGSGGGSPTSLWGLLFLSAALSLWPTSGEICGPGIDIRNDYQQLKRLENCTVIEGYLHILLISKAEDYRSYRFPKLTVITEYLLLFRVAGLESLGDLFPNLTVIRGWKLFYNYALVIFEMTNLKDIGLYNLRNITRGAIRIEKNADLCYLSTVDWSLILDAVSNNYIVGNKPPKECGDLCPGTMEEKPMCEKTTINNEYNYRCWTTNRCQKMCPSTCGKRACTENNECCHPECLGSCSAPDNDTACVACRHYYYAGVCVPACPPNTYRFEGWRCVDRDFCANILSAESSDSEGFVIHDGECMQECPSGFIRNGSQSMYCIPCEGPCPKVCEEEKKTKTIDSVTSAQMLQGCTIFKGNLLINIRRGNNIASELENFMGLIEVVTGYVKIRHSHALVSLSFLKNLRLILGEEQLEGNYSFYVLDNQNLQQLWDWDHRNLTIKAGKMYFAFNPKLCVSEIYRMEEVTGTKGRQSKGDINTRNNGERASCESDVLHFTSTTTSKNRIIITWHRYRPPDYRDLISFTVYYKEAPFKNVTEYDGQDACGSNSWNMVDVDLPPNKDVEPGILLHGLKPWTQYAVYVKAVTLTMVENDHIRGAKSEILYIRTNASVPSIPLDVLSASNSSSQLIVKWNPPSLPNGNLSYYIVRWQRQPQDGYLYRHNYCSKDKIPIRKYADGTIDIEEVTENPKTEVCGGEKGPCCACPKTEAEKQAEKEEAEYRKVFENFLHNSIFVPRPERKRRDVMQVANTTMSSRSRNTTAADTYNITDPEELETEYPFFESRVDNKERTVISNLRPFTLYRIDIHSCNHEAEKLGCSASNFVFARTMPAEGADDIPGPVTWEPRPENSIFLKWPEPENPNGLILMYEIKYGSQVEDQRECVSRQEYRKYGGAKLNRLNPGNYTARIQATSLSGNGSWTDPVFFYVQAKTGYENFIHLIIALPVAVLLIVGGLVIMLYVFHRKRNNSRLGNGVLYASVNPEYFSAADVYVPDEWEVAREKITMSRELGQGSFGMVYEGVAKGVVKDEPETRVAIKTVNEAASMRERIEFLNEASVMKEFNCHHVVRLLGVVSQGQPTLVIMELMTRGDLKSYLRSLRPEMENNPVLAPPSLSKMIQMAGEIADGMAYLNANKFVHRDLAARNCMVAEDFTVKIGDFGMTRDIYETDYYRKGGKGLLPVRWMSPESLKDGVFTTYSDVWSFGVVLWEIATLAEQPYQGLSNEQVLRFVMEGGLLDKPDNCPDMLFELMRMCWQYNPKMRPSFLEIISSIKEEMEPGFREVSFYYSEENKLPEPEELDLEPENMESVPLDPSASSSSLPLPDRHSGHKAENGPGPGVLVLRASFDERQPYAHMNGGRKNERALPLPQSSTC

With CC(C)(C)NS(=O)(=O)c1cccc(NC(=O)c2ccc(S(=O)(=O)NC(C)(C)C)cc2N2CCC3(CC2)CC3)c1 [AM-1882] the remaining activity at 1 µM (IGF-1R; [1]) was 83%, the remaining activity at 1 µM (IRAK 4; [1]) was 80% and the remaining activity at 1 µM (PKD2; [1]) was 64.5%. It also gave a remaining activity at 1 µM (TNIK; [1]) of 82%.

With CC(C)(CO)Nc1ccc(C(=O)Nc2cccc(S(=O)(=O)C3CCCC3)c2)c(N2CCC3(CC2)CC3)n1 [AM-0277] the remaining activity at 1 µM (IGF-1R; [2]) was 97%, the remaining activity at 1 µM (IRAK 4; [2]) was 100% and the remaining activity at 1 µM (PKD2; [2]) was 100%. The remaining activity at 1 µM (TNIK; [2]) was 88%.

In the case of C[C@@H]1CN(c2cccc(NC(=O)c3ccc(NS(=O)(=O)CCO)cc3N3CCC4(CC3)CC4)n2)CCO1 [AM-5308], the remaining activity at 1 µM (IGF-1R; [3]) is reported as 86.5%, the remaining activity at 1 µM (IRAK 4; [3]) is reported as 95.5% and the remaining activity at 1 µM (PKD2; [3]) is reported as 100%. It also gave a remaining activity at 1 µM (TNIK; [3]) of 52.5%.

Source: paper PMC10824666 (Nature Cancer, 2023)
